We go through 23 molecules from patent US10829473B2, “Modulators of the cystic fibrosis transmembrane conductance regulator protein and methods of use” (AbbVie Overseas S.Á.R.L., priority 2017, dated 2020).

This experiment addresses T1, F508delCFTR (Homo sapiens, UniProt P13569, DEL508-508).
T1 construct: expressed in transfected cells; host or cells: CFBE41o- human lung derived epithelial cells (CFBE41o-F508delCFTR-HRP), doxycycline-inducible
Description: Cell Surface Expression-Horse Radish Peroxidase (CSE-HRP) Assay.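 For EC50 (with co-corrector): co-corrector chromenyl benzoic acid corrector at 2 or 3 µM.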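 For Maximum % activity (without co-corrector): % of on-plate positive control chromenyl benzoic acid corrector at 2 or 3 µM.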 Type of experiment: cell-based. To be noted: for Maximum % activity (with co-corrector) / Emax: maximum at any tested concentration; for Emax: read-out: Maximum % activity (without co-corrector). The essentials:
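Corrector compounds were given as 8-point 3-fold series from 20 or 30 μM, with or without a 2 μM co-corrector, for 18-24 h at 33 °C. Surface HRP was read by luminol luminescence as % of positive control; variable-Hill-slope sigmoidal fitting gave EC50 from triplicate plates.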

Setting [1] is: test compound alone, without co-corrector, read-out: EC50 (without co-corrector).
[2] abbreviates: with co-corrector, read-out: EC50 (with co-corrector).

Where two headings read alike, the source gives them in different places.

T1 sequence (P13569 with tags, fused parts or gaps DEL508-508): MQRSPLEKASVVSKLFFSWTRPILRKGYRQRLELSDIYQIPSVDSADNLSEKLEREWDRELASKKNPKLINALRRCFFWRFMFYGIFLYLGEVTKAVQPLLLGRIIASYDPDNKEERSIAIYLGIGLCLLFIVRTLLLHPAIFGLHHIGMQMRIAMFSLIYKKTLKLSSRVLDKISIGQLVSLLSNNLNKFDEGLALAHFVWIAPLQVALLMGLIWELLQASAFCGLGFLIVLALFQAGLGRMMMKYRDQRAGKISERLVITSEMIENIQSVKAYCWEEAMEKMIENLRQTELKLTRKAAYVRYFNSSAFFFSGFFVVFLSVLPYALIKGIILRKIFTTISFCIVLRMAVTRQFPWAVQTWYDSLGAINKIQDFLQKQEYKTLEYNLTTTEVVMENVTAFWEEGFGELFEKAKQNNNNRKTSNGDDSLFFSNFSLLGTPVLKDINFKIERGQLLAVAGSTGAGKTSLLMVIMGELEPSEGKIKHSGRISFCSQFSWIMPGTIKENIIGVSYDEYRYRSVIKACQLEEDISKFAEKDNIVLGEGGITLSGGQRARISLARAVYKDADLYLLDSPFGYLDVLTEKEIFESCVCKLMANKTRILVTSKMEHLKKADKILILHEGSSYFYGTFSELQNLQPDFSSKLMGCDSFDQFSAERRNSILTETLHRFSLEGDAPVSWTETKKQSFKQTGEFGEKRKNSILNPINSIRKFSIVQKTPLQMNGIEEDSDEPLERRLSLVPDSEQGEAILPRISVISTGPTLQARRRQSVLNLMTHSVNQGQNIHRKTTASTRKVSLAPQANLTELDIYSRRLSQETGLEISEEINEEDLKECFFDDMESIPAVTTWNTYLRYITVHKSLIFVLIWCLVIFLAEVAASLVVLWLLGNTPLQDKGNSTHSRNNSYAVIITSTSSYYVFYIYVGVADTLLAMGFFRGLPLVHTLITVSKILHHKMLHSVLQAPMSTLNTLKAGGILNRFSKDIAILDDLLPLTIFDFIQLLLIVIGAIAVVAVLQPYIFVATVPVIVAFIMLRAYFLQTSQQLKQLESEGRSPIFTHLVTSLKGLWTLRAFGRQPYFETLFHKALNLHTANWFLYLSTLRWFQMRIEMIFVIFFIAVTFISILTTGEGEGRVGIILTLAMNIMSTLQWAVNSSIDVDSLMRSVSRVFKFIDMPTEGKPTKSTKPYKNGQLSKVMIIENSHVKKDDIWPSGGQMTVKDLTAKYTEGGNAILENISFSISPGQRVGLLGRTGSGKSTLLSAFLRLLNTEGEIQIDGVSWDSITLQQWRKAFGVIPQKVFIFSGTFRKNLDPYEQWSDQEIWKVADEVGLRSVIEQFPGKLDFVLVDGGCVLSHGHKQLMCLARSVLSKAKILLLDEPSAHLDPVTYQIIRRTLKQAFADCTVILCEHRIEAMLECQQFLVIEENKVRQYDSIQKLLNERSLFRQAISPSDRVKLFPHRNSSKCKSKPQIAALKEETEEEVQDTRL

As a reminder, the EC50 is the concentration at which the effect is half-maximal. For `COc1ccc(C2CCC2)cc1C1(C(=O)NS(=O)(=O)c2cccn3nccc23)CC1` [Example I-61, 1-(5-cyclobutyl-2-methoxyphenyl)-N-(pyrazolo[1,5-a]pyridine-4-sulfonyl)cyclopropane-1-carboxamide], the EC50 is, setting by setting: under setting [1], below 3 µM; under setting [2], below 3 µM. Also, the “Maximum % activity (with co-corrector)” value (with co-corrector) is “+++ (≥350)”. Moreover, the Emax (without co-corrector) is above 150%.
With `COc1ccc(C2CCC2)cc1C1(C(=O)NS(=O)(=O)c2cccc3ccc(C)nc23)CC1` [Example I-62, 1-(5-cyclobutyl-2-methoxyphenyl)-N-(2-methylquinoline-8-sulfonyl)cyclopropane-1-carboxamide], the half-maximal effective concentration (EC50) by setting is: under setting [1], below 3 µM; under setting [2], below 3 µM. Besides, under “with co-corrector”, the “Maximum % activity (with co-corrector)” value is on record as “+++ (≥350)”. The Emax (without co-corrector) was above 150%.
Take `COc1ccc(C2CCC2)cc1C1(C(=O)NS(=O)(=O)c2cccc3nc(C)ccc23)CC1` [Example I-63, 1-(5-cyclobutyl-2-methoxyphenyl)-N-(2-methylquinoline-5-sulfonyl)cyclopropane-1-carboxamide]: the EC50 is, setting by setting: under setting [1], below 3 µM; under setting [2], below 3 µM. Moreover, the “Maximum % activity (with co-corrector)” value (with co-corrector) is “+++ (≥350)”. Further, under “without co-corrector”, the Emax is above 150%.
With `COc1ccc(C)cc1C1(C(=O)NS(=O)(=O)c2cccc3nc(C)ccc23)CC1` [Example I-64, 1-(2-methoxy-5-methylphenyl)-N-(2-methylquinoline-5-sulfonyl)cyclopropane-1-carboxamide], the 50% effective concentration (EC50) was below 3 µM under setting [1] and below 3 µM under setting [2]. In addition, the “Maximum % activity (with co-corrector)” value (with co-corrector) was “+++ (≥350)”. The Emax (without co-corrector) was above 150%.
`COc1ccc(OC(F)F)cc1C1(C(=O)NS(=O)(=O)c2cccc3ncccc23)CC1` [Example I-65, 1-[5-(difluoromethoxy)-2-methoxyphenyl]-N-(quinoline-5-sulfonyl)cyclopropane-1-carboxamide]: the 50% effective concentration (EC50) by setting is: under setting [1], 3 to 10 µM; under setting [2], below 3 µM. For the same molecule, the “Maximum % activity (with co-corrector)” value (with co-corrector) was “+++ (≥350)”. Also, where the note is “without co-corrector”, the Emax is above 150%.
With `CCOc1cccc(OCC)c1C1(C(=O)NS(=O)(=O)c2cccc3ncccc23)CC1` [Example I-66, 1-(2,6-diethoxyphenyl)-N-(quinoline-5-sulfonyl)cyclopropane-1-carboxamide], the concentration giving a half-maximal response (EC50) was below 3 µM under setting [1] and below 3 µM under setting [2]. In addition, where the note is “with co-corrector”, the “Maximum % activity (with co-corrector)” value was “+++ (≥350)”. Moreover, the Emax (without co-corrector) was above 150%.
Turning to `COc1ccc(C2CCC2)cc1C1(C(=O)NS(=O)(=O)c2cccc3nc(N)ccc23)CC1` [Example I-67, N-(2-aminoquinoline-5-sulfonyl)-1-(5-cyclobutyl-2-methoxyphenyl)cyclopropane-1-carboxamide], the 50% effective concentration (EC50) by setting is: under setting [1], 3 to 10 µM; under setting [2], below 3 µM. For the same molecule, where the note is “with co-corrector”, the “Maximum % activity (with co-corrector)” value is on record as “+++ (≥350)”. Also, under “without co-corrector”, the Emax is above 150%.
For `COc1ccc(C2CC2)cc1C1(C(=O)NS(=O)(=O)c2cccc3nc(C)ccc23)CC1` [Example I-68, 1-(5-cyclopropyl-2-methoxyphenyl)-N-(2-methylquinoline-5-sulfonyl)cyclopropane-1-carboxamide], the half-maximal effective concentration (EC50) reads like this: under setting [1], below 3 µM; under setting [2], below 3 µM.
For the molecule `CCOc1ccc(OC)c(C2(C(=O)NS(=O)(=O)c3cccc4nc(C)ccc34)CC2)c1` [Example I-69, 1-(5-ethoxy-2-methoxyphenyl)-N-(2-methylquinoline-5-sulfonyl)cyclopropane-1-carboxamide], the EC50 under setting [1] is below 3 µM and the EC50 under setting [2] was below 3 µM. In addition, the “Maximum % activity (with co-corrector)” value (with co-corrector) is “+++ (≥350)”. Further, the Emax (without co-corrector) is above 150%.
As to `COc1ccc(C(C)(C)C)cc1C1(C(=O)NS(=O)(=O)c2cccc3nc(C)ccc23)CC1` [Example I-70, 1-(5-tert-butyl-2-methoxyphenyl)-N-(2-methylquinoline-5-sulfonyl)cyclopropane-1-carboxamide], the concentration for a half-maximal effect (EC50) is below 3 µM under setting [1] and below 3 µM under setting [2]. Besides, the “Maximum % activity (with co-corrector)” value (with co-corrector) is listed as “+++ (≥350)”. Moreover, the Emax (without co-corrector) is above 150%.
Consider `COc1ccc(C(C)C)cc1C1(C(=O)NS(=O)(=O)c2cccc3nc(C)ccc23)CC1` [Example I-71, 1-[2-methoxy-5-(propan-2-yl)phenyl]-N-(2-methylquinoline-5-sulfonyl)cyclopropane-1-carboxamide], for which the EC50 is below 3 µM under setting [1] and below 3 µM under setting [2]. The “Maximum % activity (with co-corrector)” value (with co-corrector) is on record as “+++ (≥350)”. Moreover, the Emax (without co-corrector) was above 150%.
As to `Cc1ccc2c(S(=O)(=O)NC(=O)C3(c4cc(C(F)(F)F)cnc4N(C)C)CC3)cccc2n1` [Example I-72, 1-[2-(dimethylamino)-5-(trifluoromethyl)pyridin-3-yl]-N-(2-methylquinoline-5-sulfonyl)cyclopropane-1-carboxamide], the EC50 is 3 to 10 µM under setting [1] and below 3 µM under setting [2]. Besides, the “Maximum % activity (with co-corrector)” value (with co-corrector) is on record as “+++ (≥350)”. Also, the Emax (without co-corrector) is above 150%.
Regarding `COCC1(c2ccc(OC)c(C3(C(=O)NS(=O)(=O)c4cccc5ncccc45)CC3)c2)CC1` [Example I-73, 1-{2-methoxy-5-[1-(methoxymethyl)cyclopropyl]phenyl}-N-(quinoline-5-sulfonyl)cyclopropane-1-carboxamide], the EC50 reads like this: under setting [1], below 3 µM; under setting [2], below 3 µM. In addition, where the note is “with co-corrector”, the “Maximum % activity (with co-corrector)” value was “+++ (≥350)”. The Emax (without co-corrector) was above 150%.
As for `COCC1(c2ccc(OC)c(C3(C(=O)NS(=O)(=O)c4cccc5nc(C)ccc45)CC3)c2)CC1` [Example I-74, 1-{2-methoxy-5-[1-(methoxymethyl)cyclopropyl]phenyl}-N-(2-methylquinoline-5-sulfonyl)cyclopropane-1-carboxamide], the EC50 is below 3 µM under setting [1] and below 3 µM under setting [2]. Besides, the “Maximum % activity (with co-corrector)” value (with co-corrector) is given as “+++ (≥350)”. For the same molecule, the Emax (without co-corrector) is above 150%.
In the case of `COc1nc2ccccc2cc1C1(C(=O)NS(=O)(=O)c2cccc3nc(C)ccc23)CC1` [Example I-75, 1-(2-methoxyquinolin-3-yl)-N-(2-methylquinoline-5-sulfonyl)cyclopropane-1-carboxamide], the concentration giving a half-maximal response (EC50) under setting [1] fell in the range of 3 to 10 µM and the concentration for a half-maximal effect (EC50) under setting [2] was below 3 µM. Moreover, the “Maximum % activity (with co-corrector)” value (with co-corrector) is “+++ (≥350)”. In addition, the Emax (without co-corrector) was above 150%.
The corresponding values for `COc1nc2ccccc2cc1C1(C(=O)NS(=O)(=O)c2cccc3ncccc23)CC1` [Example I-76, 1-(2-methoxyquinolin-3-yl)-N-(quinoline-5-sulfonyl)cyclopropane-1-carboxamide] are 3 to 10 µM, below 3 µM, “+++ (≥350)” and above 150%.
Regarding `Cc1ccc(OC(C)C)c(C2(C(=O)NS(=O)(=O)c3cccc4ncccc34)CC2)c1` [Example I-77, 1-{5-methyl-2-[(propan-2-yl)oxy]phenyl}-N-(quinoline-5-sulfonyl)cyclopropane-1-carboxamide], the half-maximal effective concentration (EC50) runs as follows: under setting [1], below 3 µM; under setting [2], below 3 µM. In addition, under “with co-corrector”, the “Maximum % activity (with co-corrector)” value is reported as “+++ (≥350)”. Where the note is “without co-corrector”, the Emax was above 150%.
For `Cc1ccc(OC(C)C)c(C2(C(=O)NS(=O)(=O)c3cccc4nc(C)ccc34)CC2)c1` [Example I-78, 1-{5-methyl-2-[(propan-2-yl)oxy]phenyl}-N-(2-methylquinoline-5-sulfonyl)cyclopropane-1-carboxamide], the EC50 reads like this: under setting [1], below 3 µM; under setting [2], below 3 µM. For the setting “with co-corrector”, the “Maximum % activity (with co-corrector)” value is on record as “+++ (≥350)”. The Emax (without co-corrector) was above 150%.
Turning to `COc1ccc(C)cc1C1(C(=O)NS(=O)(=O)c2cccc3nc(N)ccc23)CC1` [Example I-79, N-(2-aminoquinoline-5-sulfonyl)-1-(2-methoxy-5-methylphenyl)cyclopropane-1-carboxamide], the half-maximal effective concentration (EC50) was below 3 µM under setting [1] and below 3 µM under setting [2]. Also, the “Maximum % activity (with co-corrector)” value (with co-corrector) is “+++ (≥350)”. In addition, the Emax (without co-corrector) is above 150%.
As to `COc1cc(C2CCC2)cc(OC)c1C1(C(=O)NS(=O)(=O)c2cccc3ncccc23)CC1` [Example I-80, 1-(4-cyclobutyl-2,6-dimethoxyphenyl)-N-(quinoline-5-sulfonyl)cyclopropane-1-carboxamide], the 50% effective concentration (EC50) under setting [1] lay within 3 to 10 µM and the EC50 under setting [2] is below 3 µM. The “Maximum % activity (with co-corrector)” value (with co-corrector) is given as “+++ (≥350)”. In addition, the Emax (without co-corrector) was above 150%.
The corresponding values for `Cc1ccc(C)c(C2(C(=O)NS(=O)(=O)c3cccc4nc(N)ccc34)CC2)c1` [Example I-81, N-(2-aminoquinoline-5-sulfonyl)-1-(2,5-dimethylphenyl)cyclopropane-1-carboxamide] are below 3 µM, below 3 µM, “+++ (≥350)” and above 150%.
Consider `CCOc1ccc(C)cc1C1(C(=O)NS(=O)(=O)c2cccc3ncccc23)CC1` [Example I-82, 1-(2-ethoxy-5-methylphenyl)-N-(quinoline-5-sulfonyl)cyclopropane-1-carboxamide], for which the EC50 is below 3 µM under setting [1] and below 3 µM under setting [2]. In addition, the “Maximum % activity (with co-corrector)” value (with co-corrector) is listed as “+++ (≥350)”. The Emax (without co-corrector) is above 150%.
As to `CCOc1ccc(C)cc1C1(C(=O)NS(=O)(=O)c2cccc3nc(C)ccc23)CC1` [Example I-83, 1-(2-ethoxy-5-methylphenyl)-N-(2-methylquinoline-5-sulfonyl)cyclopropane-1-carboxamide], the concentration for a half-maximal effect (EC50) is, setting by setting: under setting [1], below 3 µM; under setting [2], below 3 µM. In addition, where the note is “with co-corrector”, the “Maximum % activity (with co-corrector)” value was “+++ (≥350)”. The Emax (without co-corrector) is above 150%.
